Here are results for 19 compounds from ChEMBL document CHEMBL1629514, “Synthesis, biological activity, and evaluation of the mode of action of novel antitubercular benzofurobenzopyrans substituted on A ring” (Eur J Med Chem, 2010).

Converted amounts (≈) assume the structure as drawn. Where only a bound is given, the exact number is not on record here.

The assay concerns Mycobacterium tuberculosis. Nature of the assay: Antimycobacterial activity against Mycobacterium bovis BCG after 6 days by Microdilution Resazurin assay. The class given is functional. The note with it: variant bovis BCG, 144 h. (In general: In broth dilution the organism is exposed to a series of concentrations in liquid medium.)

Turning to `COc1ccc2oc3cc4c(cc3c2c1)OC(C)(C)C=C4`, the MIC95 was determined as 89 µM (≈ 24.9 µg/mL).

In the case of `CC1(C)C=Cc2c(ccc3oc4c(O)cccc4c23)O1`, the MIC95 stood at 94 µM (≈ 25 µg/mL).

Regarding `CC1(C)C=Cc2c(ccc3oc4ccccc4c23)O1`, the MIC95 worked out at 100 µM (≈ 25 µg/mL).

Compound `CC1(C)C=Cc2c(ccc3oc4ccc(Cl)cc4c23)O1` came in with an MIC95 of 100 µM (≈ 28.5 µg/mL).

The compound `CC1(C)C=Cc2c(ccc3c2oc2ccc4c(c23)C=CC(C)(C)O4)O1` had an MIC95 greater than 300 µM.

Compound `COc1ccc2c(c1)oc1ccc3c(c12)C=CC(C)(C)O3` yielded an MIC95 greater than 360 µM.

`CC1(C)C=Cc2c(ccc3oc4cc(O)ccc4c23)O1` displayed an MIC95 of 94 µM (≈ 25 µg/mL).

`CC1(C)CCc2c(ccc3oc4ccc(O)cc4c23)O1` displayed an MIC95 of 140 µM (≈ 37.6 µg/mL).

In the case of `CC1(C)C=Cc2c(ccc3oc4ccc(O)cc4c23)O1`, the MIC95 worked out at 79 µM (≈ 21 µg/mL).

As to `CC1(C)C=Cc2c(ccc3oc4c(Cl)cccc4c23)O1`, the MIC95 is greater than 350 µM.

Consider `COc1cccc2oc3ccc4c(c3c12)C=CC(C)(C)O4`, for which the MIC95 is 89 µM (≈ 24.9 µg/mL).

As for `CC1(C)C=Cc2c(ccc3oc4cc(Br)ccc4c23)O1`, the MIC95 was 150 µM (≈ 49.4 µg/mL).

For `CC1(C)C=Cc2c(ccc3oc4cc(-c5ccc6c(c5)oc5ccc7c(c56)C=CC(C)(C)O7)ccc4c23)O1`, the MIC95 was greater than 200 µM.

`CC1(C)C=Cc2c(ccc3oc4cccc(Cl)c4c23)O1`: the MIC95 is greater than 350 µM.

`CC(=O)c1ccc2oc3ccc4c(c3c2c1)CCC(C)(C)O4` had an MIC95 greater than 340 µM.

`CC1(C)C=Cc2c(ccc3oc4cccc(O)c4c23)O1` had an MIC95 of 94 µM (≈ 25 µg/mL).

Turning to `COc1ccc2oc3ccc4c(c3c2c1)C=CC(C)(C)O4`, the MIC95 was determined as 89 µM (≈ 24.9 µg/mL).

For `NNC(=O)c1ccncc1` [ISONIAZID], the MIC95 amounted to 4.4 µM (≈ 0.603 µg/mL).

The compound `COc1cccc2c1oc1ccc3c(c12)C=CC(C)(C)O3` returned an MIC95 of 89 µM (≈ 24.9 µg/mL).
